Experimental data published in patent US20110183942A1, “Methods and Compositions for Treating Alzheimer's Disease” (UNIVERSITY OF MEDICINE AND DENTISTRY OF NEW JERSEY, priority 2008, published 2011).

Tests used:
[1] = tested on: surface AMPA receptor (GluR2/3, GluR1) in cultured neurons; assay: Surface biotinylation assay of AMPA receptor subunits; assay type: cell-based, mouse; conditions: DHPG 5 min
Procedure: For surface biotinylation, drug-treated cortical neurons were cooled on ice, washed twice with ice-cold PBS++ (1× PBS, 1 mM CaCl2, 0.5 mM MgCl2) and then incubated with PBS++ containing 1 mg/ml Sulfo-NHS-SSBiotin (Pierce) for 30 min at 4° C. Unreacted biotin was quenched by washing cells three times with PBS++ containing 100 mM Glycine (pH 7.4) (briefly once and for 5 min twice). Cultures were harvested in RIPA buffer and sonicated. Homogenates were centrifuged at […] for 20 min at 4° C. Fifteen % of supernatant was saved as the total protein. […] Precipitates were washed with RIPA buffer three times (5 min each time). All procedures were done at 4° C.

[2] = tested on: hippocampal Schaffer collateral-CA1 synapses; assay: Field recording of fEPSP (mGluR-LTD) in acute hippocampal slices; assay type: cell-based, mouse; conditions: for DHPG-LTD (fEPSP slope): t=75 min
Procedure: For recording, slices were placed in a submersion recording chamber and perfused with 30° C. ACSF at a rate of 2 ml/min.
fEPSPs were recorded with extracellular recording electrodes (1.0 MΩ) filled with ACSF and placed in the stratum radiatum of area CA1. Synaptic responses were evoked by a 200-μsec current pulse to Schaffer collateral axons with a concentric bipolar tungsten stimulating electrode. Stable baseline responses were collected every 30 sec by using a stimulation intensity (10-30 μA) yielding 50-60% of the maximal fEPSP slope response.
mGluR-LTD was induced by a mGluR1/5 agonist, (R,S)-3,5-DHPG (Tocris), or by electrical stimulations. […] NMDAR dependent-LTD was induced by using 900 single pulses delivered at 1 Hz.

[3] = tested on: Arc mRNA in cultured neurons; assay: Real-time RT-PCR of Arc mRNA; assay type: cell-based; conditions: BDNF 10 ng/ml at 40 min; forskolin 50 μM at 20 min; DHPG at 20 and 40 min after stimulation
Procedure: RNA samples from neuronal cultures were prepared using the PARIS kit (Ambion) according to the manufacturer's protocol. Following RNA extraction, samples were treated with DNase to remove contaminating DNA prior to cDNA synthesis. Total RNA was reverse transcribed using the SuperScript II First Strand Synthesis System for RT-PCR (Invitrogen) according to the manufacturer's protocol. A negative control without reverse transcriptase was included.
Primer specificity was verified by melt curve analysis. PCR amplification of cDNA was performed using the BioRad iCycler Real-Time Detection System (BioRad Laboratories). cDNA (1 μl) was added to 24 μl of 1× reaction master mix (3 mM MgCl2, KCl, Tris-HCl, iTaq DNA polymerase, 25 units/ml SYBR Green 1, 0.2 mM each dNTPs, 10 nM fluorescein and 500 nM each gene specific primers). […]
GAPDH was used to normalize data. The threshold for detection of PCR product above background was set at 10× the standard deviation of the mean background fluorescence for all reactions. Background fluorescence was determined from cycles 1-5 prior to the exponential amplification of product and subtracted from the raw fluorescence of each reaction/cycle. […] Threshold cycle (CT; number of cycles to reach threshold of detection) was determined for each reaction.
Relative gene expression was determined using the 2^−ΔΔCT method (Livak, et al., Methods 25, 402-408 (2001)). […]

[4] = tested on: GluR1-containing AMPA receptors in primary hippocampal neurons; assay: AMPA receptor trafficking (surface and internalized GluR1 labeling); assay type: cell-based, mouse
Procedure: (§1) Labeling of surface or internalized pool of AMPA receptor was performed as described with minor modifications (Shepherd, et al., Neuron, 52, 475-484 (2006)). Briefly, surface GluR1-containing AMPA receptors were then labeled by adding 2.5 μg of GluR1-N JH1816 pAb to the neuronal growth media and were subsequently incubated at 37° C. for 15 or 60 minutes after 5 min DHPG application. To visualize surface and internalized GluR1, Alexa 555 secondary was added in excess live at 10° C. Neurons were fixed, permeabilized and subsequently exposed to Alexa 488 secondary to stain internalized receptors (background in the non-permeabilized control was negligible).
as §1, with “DIV 14-21 mouse primary hippocampal cultures were incubated in neuronal growth media containing 50 μMDHPG for 5 minutes and then washed” for “Labeling of surface or internalized pool of AMPA receptor was performed as described”, “new growth media. Surface” for “minor modifications (Shepherd, et al., Neuron, 52, 475-484 (2006)). Briefly, surface”
Quantification of surface GluR1 puncta was carried out using Image J software. Images were acquired as multi-channel TIFF files with a dynamic range of 4096 gray levels (12-bit binary; MultiTrack acquisition for confocal) using metamorph software on a Zeiss LSM 510 confocal microscope. To measure punctate structures neurons were thresholded by gray value at a level close to 50% of the dynamic range. Background noise from these images was negligible. All puncta were treated as individual objects and the characteristics of each, such as area and average fluorescence, were logged measured. The Data reflected in FIGS. 1B-C was an example of one representative experiment. The total intensity of GluR1 levels were normalized to control, untreated neurons at 60 min. Significance was determined by a paired Student's t-test.

NC(C(=O)O)c1cc(O)cc(O)c1 (racemic) [DHPG, (R,S)-3,5-DHPG]
reduction of ratio of surface to total GluR2/3 ([1]; WT neurons): ~30%
reduction of ratio of surface to total GluR2/3 ([1]; eEF2K KO neurons): did not significantly reduce
fEPSP slope after DHPG ([2]; Arc KO slices, DHPG 50 μM 5 min, t=70 min): 92.1±3.7 % of baseline
fEPSP slope after DHPG ([2]; Arc KO slices, DHPG 100 μM 5 min, t=90 min): 88.5±7.4 % of baseline
DHPG-LTD (fEPSP slope) ([2]; Arc/Fmr1 DKO slices, DHPG 50 μM 5 min): 85.9±4.1 % of baseline
DHPG-LTD (fEPSP slope) ([2]; FVB WT slices, DHPG 50 μM 5 min): 73.0±6.6 % of baseline
DHPG-LTD (fEPSP slope) ([2]; Fmr1 KO slices, DHPG 50 μM 5 min): 68.2±2.6 % of baseline
fEPSP slope after DHPG ([2]; WT slices (littermates of Arc KO), DHPG 50 μM 5 min, t=70 min): 72.8±2.0 % of baseline
fEPSP slope after DHPG ([2]; WT slices (littermates of eEF2K KO), DHPG 50 μM 5 min, t=90 min): 64.7±5.2 % of baseline
fEPSP slope after DHPG ([2]; WT slices, DHPG 100 μM 5 min, t=90 min): 64.4±2.6 % of baseline
fEPSP slope after DHPG ([2]; eEF2K KO slices, DHPG 50 μM 5 min, t=90 min): 108.7±3.6 % of baseline
level of Arc mRNA [3]: slightly increased the level of Arc mRNA
internalized GluR1 ([4]; Arc KO neurons, after DHPG): did not exhibit changes
surface GluR1 ([4]; Arc KO neurons, after DHPG): did not exhibit any changes
internalized GluR1 ([4]; WT cultures, 15 min after 5 min DHPG): increase of internalized GluR1
surface GluR1 ([4]; WT hippocampal cultures, 15 min and 60 min after 5 min DHPG): loss of surface GluR1
